Experimental data reported in patent US12583858B2 (Genentech, Inc., priority 2015, dated 2026).
Where two headings read alike, the source gives them in different places.

Assays:
[1] = molecular target: T1, IDO (Homo sapiens, UniProt P14902); experiment: IDO cell assay (NFK GreenScreen, A172+IFNg cells); format: cell-based; conditions: A172 cells + 100 ng/ml IFNγ (high IDO expressing), 100 uM tryptophan, 24 hours; TDO selectivity table; read-out: IDO cell Fluor EC50
T1 construct: selective against A172+IFNg cells (high IDO expressing cells)
Experimental: Cells are counted on a Vi-Cell (Beckman Coulter). […] The final DMSO concentration is 0.5%.
Compounds of the invention were tested for selectivity against TDO over IDO. The cell based assay described above was used to test for TDO and IDO activity.

[2] = molecular target: T2, TDO2 (Homo sapiens, UniProt P48775); experiment: TDO2 cell assay (NFK GreenScreen, SW48 cells); format: cell-based; conditions: SW48 cells (high TDO expressing)
T2 construct: decreased levels of NFK in SW48 cells (high TDO expressing cells)

[3] = 200 uM tryptophan, 24 hours, Table 3, read-out: TDO2 Cell Fluor EC50
[4] = TDO selectivity table, read-out: TDO2 cell Fluor EC50

T2 sequence (P48775 whole entry): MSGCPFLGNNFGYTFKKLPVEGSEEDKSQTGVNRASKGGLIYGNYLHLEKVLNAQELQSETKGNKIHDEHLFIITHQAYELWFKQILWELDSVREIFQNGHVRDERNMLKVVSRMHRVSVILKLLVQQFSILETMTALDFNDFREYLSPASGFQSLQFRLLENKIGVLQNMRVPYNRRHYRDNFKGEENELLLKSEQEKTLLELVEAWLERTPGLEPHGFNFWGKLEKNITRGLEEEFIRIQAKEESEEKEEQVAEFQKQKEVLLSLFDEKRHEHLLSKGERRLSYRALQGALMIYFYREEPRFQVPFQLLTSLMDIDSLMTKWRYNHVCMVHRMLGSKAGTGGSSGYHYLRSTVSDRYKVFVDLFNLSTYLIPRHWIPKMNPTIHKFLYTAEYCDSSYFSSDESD
T1 sequence (P14902 whole entry): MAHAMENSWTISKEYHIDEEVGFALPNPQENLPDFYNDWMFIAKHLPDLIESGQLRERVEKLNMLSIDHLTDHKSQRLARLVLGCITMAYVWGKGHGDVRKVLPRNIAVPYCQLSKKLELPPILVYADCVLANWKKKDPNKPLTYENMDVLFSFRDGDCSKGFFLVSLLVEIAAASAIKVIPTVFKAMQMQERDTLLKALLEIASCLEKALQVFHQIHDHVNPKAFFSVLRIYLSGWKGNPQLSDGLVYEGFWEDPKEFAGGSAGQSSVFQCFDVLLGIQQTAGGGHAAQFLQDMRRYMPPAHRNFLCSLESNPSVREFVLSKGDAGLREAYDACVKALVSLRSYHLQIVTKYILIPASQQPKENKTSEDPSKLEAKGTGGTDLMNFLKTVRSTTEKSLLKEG

| Structure (SMILES) | EC50 [1] | EC50 [2, 3] | EC50 [2, 4] |
| --- | --- | --- | --- |
| NS(=O)(=O)c1ccc2c(c1)CCC(C1c3ccccc3-c3cncn31)C2O (single isomer, unassigned) [Example 100g] | 1700 nM | 57 nM | 57 nM |
| NC(=O)c1nc2c(s1)CCC(C1c3ccccc3-c3cncn31)C2O (single isomer, unassigned) [Example 149b] | 2100 nM | 55 nM | 55 nM |
| OC1c2cnncc2CCC1C1c2ccccc2-c2cncn21 (single isomer, unassigned) [Example 112b] | 15000 nM | 240 nM | 240 nM |
| NC(=O)c1ccc2c(c1)CC[C@@H]([C@H]1c3ccccc3-c3cncn31)[C@@H]2O [Example 60e, (5S,6S)-5-hydroxy-6-((S)-5H-imidazo[5,1-a]isoindol-5-yl)-5,6,7,8-tetrahydronaphthalene-2-carboxamide] | 1400 nM | 35 nM | 35 nM |
| OC1c2cncnc2CCC1C1c2ccccc2-c2cncn21 (single isomer, unassigned) [Example 94c] | 8400 nM | 110 nM | 110 nM |
| OC1c2cnccc2CCC1C1c2ccccc2-c2cncn21 (single isomer, unassigned) [Example 04e] | 1200 nM | 49 nM | 49 nM |
| OC1C(C2c3ccc(F)cc3-c3cncn32)CC12CCOCC2 (single isomer, unassigned) [Example 109c] | > 25000 nM | 230 nM | 230 nM |
| NS(=O)(=O)N1CCC(O)C(C2c3ccccc3-c3cncn32)CC1 (single isomer, unassigned) [Example 101d, 4-hydroxy-5-(5H-imidazo[5,1-a]isoindol-5-yl)azepane-1-sulfonamide] | 21000 nM | 770 nM | 770 nM |
| NC(=O)c1ccc2c(c1)C(O)C(C1c3ccccc3-c3cncn31)CC2 (single isomer, unassigned) [Example 122a] | 2600 nM | 35 nM | 35 nM |

Now from value to molecule:

| EC50 [1] | EC50 [2, 3] | EC50 [2, 4] | Structure (SMILES) |
| --- | --- | --- | --- |
| 13000 nM | 380 nM | 380 nM | Cn1ncc2c1CCC(C1c3ccccc3-c3cncn31)C2O (single isomer, unassigned) [Example 93a] |
| 2000 nM | 16 nM | 16 nM | CC1(C)C[C@@H](O)[C@@H]1[C@H]1c2ccccc2-c2cncn21 [Example 22b, (1R,2S)-2-((S)-5H-imidazo[5,1-a]isoindol-5-yl)-3,3-dimethylcyclobutan-1-ol] |
| 5000 nM | 250 nM | 250 nM | C[C@H](O)[C@H]1c2ccccc2-c2cncn21 [Example 42c, (S)-1-((R)-5H-imidazo[5,1-a]isoindol-5-yl)ethan-1-ol] |
| > 25000 nM | 860 nM | 860 nM | O[C@@H]1c2cncn2CC[C@H]1[C@H]1c2ccccc2-c2cncn21 [Example 07h, (7S,8S)-7-((S)-5H-imidazo[5,1-a]isoindol-5-yl)-5,6,7,8-tetrahydroimidazo[1,5-a]pyridin-8-ol] |
| 2400 nM | 37 nM | 37 nM | O[C@@H]1CC[C@H]1[C@H]1c2ccccc2-c2cncn21 [Example 01d, (1R,2S)-2-((S)-5H-imidazo[5,1-a]isoindol-5-yl)cyclobutan-1-ol] |
| 1800 nM | 87 nM | 87 nM | Cn1cc2c(n1)CCC(C1c3ccccc3-c3cncn31)C2O (single isomer, unassigned) [Example 130d] |
| 4500 nM | 150 nM | 150 nM | O[C@@H]1c2ccnn2CC[C@H]1[C@H]1c2ccccc2-c2cncn21 [Example 56a, (4S,5S)-5-((S)-5H-imidazo[5,1-a]isoindol-5-yl)-4,5,6,7-tetrahydropyrazolo[1,5-a]pyridin-4-ol] |
| 1200 nM | 110 nM | 110 nM | CCS(=O)(=O)N1CC[C@@H]([C@H]2c3ccccc3-c3cncn32)[C@H](O)C1 [Example 16a, (3S,4S)-1-(ethylsulfonyl)-4-((S)-5H-imidazo[5,1-a]isoindol-5-yl)piperidin-3-ol] |
| 8000 nM | 42 nM | 42 nM | OC1c2[nH]ncc2CCC1C1c2ccccc2-c2cncn21 (single isomer, unassigned) [Example 157g] |
|  | > 25000 nM |  | CS(=O)(=O)N1CCC(C2c3ccccc3-c3cncn32)C(O)C1 [Example 64c, (3R,4R)-4-((R)-5H-imidazo[5,1-a]isoindol-5-yl)-1-(methylsulfonyl)piperidin-3-ol] |
